We go through one molecule from article PMC6271077, “Synthesis, Anticancer and Antibacterial Activity of Salinomycin N-Benzyl Amides” (Molecules, 2014).

Experiment [1] deals with HL-60. As to the kind of experiment: Antiproliferative MTT assay, HL-60. It counts as cell-based, human. The text has this: (§1) Four human cancer cell lines and one normal cell line were used to evaluate anticancer activity of SAL and its N-benzyl amides: human acute promyelocytic leukemia (HL-60) and its vincristine resistant subline (HL-60/vinc), human colon adenocarcinoma cell lines sensitive (LoVo) and resistant to doxorubicin (LoVo/dx) as well as also normal murine embryonic fibroblast cell line (BALB/3T3). The BALB/3T3 cell line was purchased from the American Type Culture Collection (ATCC Rockville, MD, USA), HL-60 cell line from European Type Culture Collection by courtesy of Professor Spik and Dr Mazurier (Laboratory of Biological Chemistry USTL, Lille, France) and HL-60/vinc, LoVo and LoVo/dx by courtesy of Prof. E. Borowski (Technical University of Gdańsk, Gdańsk, Poland). All the cell lines are maintained in the Institute of Immunology and Experimental Therapy (IIET), Wrocław, Poland.
(§2) Human leukemia cells were cultured in ISCOVE medium (IIET, Wroclaw, Polond) containing 10% fetal bovine serum and 2 mM L-glutamine (Sigma Aldrich) and 1 µg/100 mL […] for HL-60/vinc (Sigma Aldrich). Human colon adenocarcinoma cell lines were cultured in mixture of OptiMEM and RPMI 1640 (1:1) medium (IIET) supplemented with 5% fetal bovine serum (Thermo Fisher Scientific, Waltham, MA, USA), 2 mM L-glutamine, 1 mM sodium pyruvate (Sigma Aldrich) and 10 µg/100 mL doxorubicin for LoVo/dx (Sigma Aldrich). Murine embryonic fibroblast cells were cultured in Dulbecco medium (Gibco, Darmstadt, Germany) supplemented with 10% fetal bovine serum (Thermo Fisher Scientific) and 2 mM L-glutamine (Sigma Aldrich). All culture media contained antibiotics: 100 U/mL penicillin (Sigma Aldrich) and 100 µg/mL streptomycin (Polfa-Tarchomin, City, Poland). All cell lines were cultured during entire experiment in humid atmosphere at 37 °C and 5% CO2.
(§3) Twenty four hours before adding the tested compounds all cell lines were seeded in 96-well plates (Sarstedt, Nümbrecht, Germany) in appropriate media with 10^4 cells per well. All cell lines were exposed to each tested agent at four different concentrations from the range 100 to 0.1 µg/mL for 72 h. The cells were also exposed to the reference drugs: cisplatin (Accord, London, UK) and doxorubicin hydrochloride (Fluka, St. Louis, MO, USA). Additionally, all cell lines were exposed to DMSO (the solvent used for tested compounds, Sigma Aldrich) at the concentrations corresponding to those in the tested agent dilutions. For adherent cells sulphorodamine B assay was performed and MTT assay for leukemia cells.
(§4) Proliferation inhibition of leukemia cells by tested compounds was measured by means of MTT assay. Thus, 20 µL of 3-(4,5-dimethylthiazol-2-yl)-2,5-diphenyl tetrazolium bromide solution (Sigma Aldrich) were added to each well and plates were left in cell incubator for 4 h to allow the cells to metabolize yellow MTT to blue formazan. Then, the lysing mixture consisting of 225 mL dimethylformamide, 67.5 g sodium dodecyl sulfate (both from Sigma Aldrich) and 275 mL of distilled water was added in 80 µL volume per well. Plates were incubated for 24 h for the formazan crystals to be released from cells, dissolved and then absorbance of each well was read at Synergy H4 photometer (BioTek Instruments) at 570 nm wavelength.
(§5) Results are presented as mean IC50 (concentration of the tested compound that inhibits cell proliferation by 50%) ± standard deviation. IC50 values were calculated in Cheburator 1.0.2, Dmitry Nevozhay software for each experiment. Compounds at each concentration were tested in triplicates in single experiment and each experiment was repeated at least three times independently. The IR was defined as the ratio of IC50 for a given compound calculated for resistant cell line to that measured for its parental drug sensitive cell line (Table 4).
Background: Tetrazolium dyes change colour on reduction, which living cells bring about.

In experiment [2] the test system is HL-60/vinc. As to the kind of experiment: Antiproliferative MTT assay, HL-60/vinc. It is filed as cell-based, human.
Excerpt: as §1, §2, §3, §4, §5

Experiment [3] concerns LoVo. As to the kind of experiment: Antiproliferative SRB assay, LoVo. It counts as cell-based, human.
Excerpt: as §1, §2, §3
(§6) After 72 h of incubation with tested compounds the cells were fixed in situ by gently adding of 50 µL per well of cold 50% trichloroacetic acid TCA (Avantor Performance Materials, City, Poland) and were incubated at 4 °C for 1 h. Then the wells were washed four times with water and air-dried. Next, 50 µL of 0.2% solution of sulphorodamine B (Sigma Aldrich) in 1% acetic acid (Avantor Performance Materials) were added to each well and plates were incubated at room temperature for 0.5 h. After incubation time, unbound dye was removed by washing plates four times with 1% acetic acid, whereas the stain bound to cells was solubilized with 150 µL of 10 mM Tris base (Sigma Aldrich). Absorbance of each solution was read at Synergy H4 photometer (BioTek Instruments, Winooski, VT, USA) at 540 nm wavelength.
as §5
(In general: In SRB staining, fixed cells bind dye roughly in proportion to their protein.)

Experiment [4] relates to LoVo/dx. As to the kind of experiment: Antiproliferative SRB assay, LoVo/dx. It counts as cell-based, human.
Excerpt: as §1, §2, §3, §6, §5

Experiment [5] concerns BALB/3T3. Put plainly: Antiproliferative SRB assay, normal fibroblasts BALB/3T3. The following applies: normal murine embryonic fibroblasts, 72 h, mean ± SD, read-out: IC50 BALB/3T3 (normal cells). It counts as cell-based.
Excerpt: as §1, with “Poland. […]” for “Poland.”
After 72 h of incubation with tested compounds the cells were fixed in situ by gently adding of 50 µL per well of cold 50% trichloroacetic acid TCA (Avantor Performance Materials, City, Poland) and were incubated at 4 °C for 1 h. […] Absorbance of each solution was read at Synergy H4 photometer (BioTek Instruments, Winooski, VT, USA) at 540 nm wavelength. […]

With `N.N.[Cl][Pt][Cl]` [cisplatin, reference compound], the IC50 in experiment [1] (72 h, MTT, mean ± SD, NA: not active in concentrations used (up to 100 µg/mL), read-out: IC50 HL-60) came to 1 ± 0.23 µM; in experiment [2] (vincristine-resistant subline, 72 h, MTT, mean ± SD, NA: not active in concentrations used (up to 100 µg/mL), read-out: IC50 HL-60/vinc), 6.87 ± 1.63 µM; in experiment [3] (72 h, SRB, mean ± SD, read-out: IC50 LoVo), 3.7 ± 1.2 µM; in experiment [4] (doxorubicin resistant subline, 72 h, SRB, mean ± SD, read-out: IC50 LoVo/dx) it was 5.2 ± 1.93 µM; in experiment [5], 5.3 ± 2.93 µM. Moreover, in experiment [1] (SI = IC50 BALB/3T3 / IC50 HL-60), the “SI HL-60” value amounted to 5.30. Further, the “IR HL-60/vinc” value in experiment [2] (IR = IC50 HL-60/vinc / IC50 HL-60) worked out at 6.87. In experiment [2] (SI = IC50 BALB/3T3 / IC50 HL-60/vinc), the “SI HL-60/vinc” value is 0.77. Besides, the “SI LoVo” value in experiment [3] (SI = IC50 BALB/3T3 / IC50 LoVo) is on record as 1.43. For the same molecule, the “IR LoVo/DX” value in experiment [4] (IR = IC50 LoVo/dx / IC50 LoVo) turned out to be 1.41. Also, the “SI LoVo/DX” value in experiment [4] (SI = IC50 BALB/3T3 / IC50 LoVo/dx) was 1.02.
